Results taken from patent US8669249B2, “Poly (ADP-ribose) polymerase (PARP) inhibitors” (Takeda Pharmaceutical Company Limited, priority 2009, dated 2014).

What was measured:
[1] = molecular target: T1, catalytic domain of Human PARP (Homo sapiens, UniProt P09874); assay: Biacore surface plasmon resonance affinity assay; type: binding; settings: pKD=-log10 KD, KD in mol/L; Biacore T100, 25° C.; read-out: pKD (converted)
T1 construct: The catalytic domain of Human PARP was cloned and prepared; made in house
In short: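 Binding at 25° C on Biacore T100: 1 min compound association then 5 min dissociation (50 μL/min) over immobilized PARP catalytic domain, buffer HBS-P plus 1% DMSO, 0.5 mM TCEP, 5 mM MgCl2, 2-fold dilution series. KD derived as koff/kon from fitted association and dissociation phases.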

PARP = molecular target: T2, PARP (Homo sapiens, UniProt P09874); assay: PARP ELISA (ELISA-based colorimetric PARP/Apoptosis Assay kit, Trevigen); type: biochemical; settings: pIC50=-log10 IC50, IC50 in mol/L; inhibition of PARP catalytic activity
T2 construct: purchased Trevigen 4684-096-K HT (kit); 4684-096-01 (PARP enzyme)
In short: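 Quenched after 10 min catalysis by aspiration and four PBS/0.1% Triton X-100 washes. Poly(ADP-ribose) detected with mouse anti-PAR monoclonal antibody, goat anti-mouse IgG-HRP and HRP substrate; colorimetric signal proportional to PARP catalytic activity.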

Jurkat cell line = assay: PARP cellular chemopotentiation assay (MTS, with/without TMZ); type: cell-based; settings: Chemopotentiation factor: ratio of EC50 values of Jurkat cells co-treated without and with 100 μM TMZ; 96 hours
In short: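 Jurkat cells, 10,000/well, pre-cultured 24 h, then treated 96 h with serial compound dilutions (0.5% DMSO) with or without 100 μM TMZ. Viability by MTS conversion (OD490), normalized to DMSO controls; EC50 from curve fits, PF50 = EC50 without TMZ / EC50 with TMZ.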

T1 sequence (P09874 788-1014 limits assumed): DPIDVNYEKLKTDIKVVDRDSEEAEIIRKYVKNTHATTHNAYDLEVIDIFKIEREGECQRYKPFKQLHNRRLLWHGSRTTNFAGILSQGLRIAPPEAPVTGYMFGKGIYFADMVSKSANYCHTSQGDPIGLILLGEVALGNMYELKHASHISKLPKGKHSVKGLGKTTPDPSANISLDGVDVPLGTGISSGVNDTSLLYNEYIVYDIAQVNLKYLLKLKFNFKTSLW
T2 sequence (P09874 whole entry): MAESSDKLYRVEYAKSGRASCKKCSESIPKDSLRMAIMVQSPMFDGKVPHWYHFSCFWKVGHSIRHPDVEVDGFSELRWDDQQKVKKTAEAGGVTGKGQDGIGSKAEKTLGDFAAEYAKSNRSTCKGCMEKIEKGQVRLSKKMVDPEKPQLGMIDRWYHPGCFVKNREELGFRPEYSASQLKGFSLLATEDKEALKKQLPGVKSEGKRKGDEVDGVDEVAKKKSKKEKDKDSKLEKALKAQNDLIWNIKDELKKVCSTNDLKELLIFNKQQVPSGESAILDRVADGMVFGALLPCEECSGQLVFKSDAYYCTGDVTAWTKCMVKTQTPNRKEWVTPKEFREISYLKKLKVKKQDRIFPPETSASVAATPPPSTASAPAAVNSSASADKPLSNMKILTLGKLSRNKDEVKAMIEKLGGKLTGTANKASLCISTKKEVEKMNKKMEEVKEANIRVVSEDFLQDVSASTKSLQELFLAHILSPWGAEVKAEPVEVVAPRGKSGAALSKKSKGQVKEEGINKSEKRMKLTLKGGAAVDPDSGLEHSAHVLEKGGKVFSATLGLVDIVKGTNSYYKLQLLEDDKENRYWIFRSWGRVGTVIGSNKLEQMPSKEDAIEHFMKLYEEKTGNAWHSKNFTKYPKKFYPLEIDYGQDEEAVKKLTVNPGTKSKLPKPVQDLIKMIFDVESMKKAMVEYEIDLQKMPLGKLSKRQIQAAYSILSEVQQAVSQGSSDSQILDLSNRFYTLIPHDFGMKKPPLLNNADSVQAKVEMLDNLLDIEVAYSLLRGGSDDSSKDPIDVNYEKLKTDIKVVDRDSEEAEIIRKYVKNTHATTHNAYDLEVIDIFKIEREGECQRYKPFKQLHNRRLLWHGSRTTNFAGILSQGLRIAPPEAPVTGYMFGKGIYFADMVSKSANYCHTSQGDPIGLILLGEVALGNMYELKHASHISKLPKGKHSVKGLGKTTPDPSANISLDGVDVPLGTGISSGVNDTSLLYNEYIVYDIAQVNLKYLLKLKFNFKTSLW

Q: Which results are given for `COC(=O)c1ccc(N2CCN(Cc3ccc4c(c3)NC(=O)C(C)O4)CC2)cc1` (stereo not drawn) [Compound 220, Methyl 4-(4-((2-methyl-3-oxo-3,4-dihydro-2H-benzo[b][1,4]oxazin-6-yl)methyl)piperazin-1-yl)benzoate]?
A: Kd [1]: ≤ 10 nM; IC50 (PARP): 39.8 to 100 nM; PF50 (Jurkat cell line): 1.0-1.9

Q: With `CC1Oc2ccc(CN3CCN(c4ccc(C(F)(F)F)cc4)CC3)cc2NC1=O` (stereo not drawn) [Compound 222, 2-Methyl-6-((4-(4-(trifluoromethyl)phenyl)piperazin-1-yl)methyl)-2H-benzo[b][1,4]oxazin-3(4H)-one] as the compound, how does the Kd [1] read?
A: The Kd was 12.6 to 100 nM.

Q: What about the IC50 (PARP) of the same compound?
A: The IC50 was no less than 126 nM.

Q: And the PF50 (Jurkat cell line)?
A: Its PF50 is 1.0-1.9.

Q: For `CNC(=O)c1ccc(N2CCN(Cc3ccc4c(c3)NC(=O)C(C)O4)CC2)cc1` (stereo not drawn) [Compound 223, N-Methyl-4-(4-((2-methyl-3-oxo-3,4-dihydro-2H-benzo[b][1,4]oxazin-6-yl)methyl)piperazin-1-yl)benzamide], which Kd [1] is on record?
A: Its Kd is no more than 10 nM.

Q: And the IC50 (PARP)?
A: Its IC50 is no more than 31.6 nM.

Q: And the PF50 (Jurkat cell line)?
A: The PF50 was “≦0.9”.

Q: Which Kd [1] does the source give for `CCNC(=O)c1ccc(N2CCN(Cc3ccc4c(c3)NC(=O)C(C)O4)CC2)cc1` (stereo not drawn) [Compound 224, N-Ethyl-4-(4-((2-methyl-3-oxo-3,4-dihydro-2H-benzo[b][1,4]oxazin-6-yl)methyl)piperazin-1-yl)benzamide] here?
A: The Kd was no more than 10 nM.

Q: And the IC50 (PARP)?
A: Its IC50 is no more than 31.6 nM.

Q: What about the PF50 (Jurkat cell line) of the same compound?
A: Its PF50 is 2.0-9.9.

Q: Which Kd [1] does the source give for `CC(C)NC(=O)c1ccc(N2CCN(Cc3ccc4c(c3)NC(=O)C(C)O4)CC2)cc1` (stereo not drawn) [Compound 225, N-Isopropyl-4-(4-((2-methyl-3-oxo-3,4-dihydro-2H-benzo[b][1,4]oxazin-6-yl)methyl)piperazin-1-yl)benzamide] here?
A: Its Kd is no more than 10 nM.

Q: And the IC50 (PARP)?
A: Its IC50 is no more than 31.6 nM.

Q: What about the PF50 (Jurkat cell line) of the same compound?
A: The PF50 was “≦0.9”.

Q: With `CC1Oc2ccc(CN3CCN(c4ccc(C#N)cn4)CC3)cc2NC1=O` (stereo not drawn) [Compound 231, 6-(4-((2-Methyl-3-oxo-3,4-dihydro-2H-benzo[b][1,4]oxazin-6-yl)methyl)piperazin-1-yl)nicotinonitrile] as the compound, how does the Kd [1] read?
A: Its Kd is no more than 10 nM.

Q: What about the IC50 (PARP) of the same compound?
A: The IC50 was no more than 31.6 nM.

Q: What about the PF50 (Jurkat cell line) of the same compound?
A: The PF50 was 1.0-1.9.

Q: Which Kd [1] does the source give for `COC(=O)c1ccc(N2CCN(Cc3ccc4c(c3)NC(=O)C(C)O4)CC2)nc1` (stereo not drawn) [Compound 232, Methyl 6-(4-((2-methyl-3-oxo-3,4-dihydro-2H-benzo[b][1,4]oxazin-6-yl)methyl)piperazin-1-yl)nicotinate] here?
A: Its Kd is no more than 10 nM.

Q: And the IC50 (PARP)?
A: The IC50 was 39.8 to 100 nM.

Q: And the PF50 (Jurkat cell line)?
A: The PF50 was 1.0-1.9.

Q: What does the source list for `CC1Oc2ccc(CN3CCN(c4ccc(C(=O)NCC5CC5)cn4)CC3)cc2NC1=O` (stereo not drawn) [Compound 234, N-(Cyclopropylmethyl)-6-(4-((2-methyl-3-oxo-3,4-dihydro-2H-benzo[b][1,4]oxazin-6-yl)methyl)piperazin-1-yl)nicotinamide]?
A: Kd [1]: ≤ 10 nM; IC50 (PARP): 39.8 to 100 nM; PF50 (Jurkat cell line): 1.0-1.9

Q: How did the Kd [1] turn out when `CNC(=O)c1ccc(N2CCN(Cc3ccc4c(c3)NC(=O)C(C)O4)CC2)nc1` (stereo not drawn) [Compound 235, N-Methyl-6-(4-((2-methyl-3-oxo-3,4-dihydro-2H-benzo[b][1,4]oxazin-6-yl)methyl)piperazin-1-yl)nicotinamide] was run?
A: The Kd was no more than 10 nM.

Q: And the IC50 (PARP)?
A: Its IC50 is no more than 31.6 nM.

Q: And the PF50 (Jurkat cell line)?
A: Its PF50 is 2.0-9.9.

Q: How did the Kd [1] turn out when `CCNC(=O)c1ccc(N2CCN(Cc3ccc4c(c3)NC(=O)C(C)O4)CC2)nc1` (stereo not drawn) [Compound 236, N-Ethyl-6-(4-((2-methyl-3-oxo-3,4-dihydro-2H-benzo[b][1,4]oxazin-6-yl)methyl)piperazin-1-yl)nicotinamide] was run?
A: The Kd was no more than 10 nM.

Q: What about the IC50 (PARP) of the same compound?
A: The IC50 was no more than 31.6 nM.

Q: And the PF50 (Jurkat cell line)?
A: Its PF50 is “≦0.9”.

Q: What does the source list for `CCOC(=O)c1ccc(N2CCN(Cc3ccc4c(c3)NC(=O)C(C)O4)CC2)nc1` (stereo not drawn) [Compound 237, Ethyl 6-(4-((2-methyl-3-oxo-3,4-dihydro-2H-benzo[b][1,4]oxazin-6-yl)methyl)piperazin-1-yl)nicotinate]?
A: Kd [1]: ≤ 10 nM; IC50 (PARP): ≥ 126 nM; PF50 (Jurkat cell line): ≦0.9

Q: How did the Kd [1] turn out when `CC(C)NC(=O)c1ccc(N2CCN(Cc3ccc4c(c3)NC(=O)C(C)O4)CC2)nc1` (stereo not drawn) [Compound 238, N-Isopropyl-6-(4-((2-methyl-3-oxo-3,4-dihydro-2H-benzo[b][1,4]oxazin-6-yl)methyl)piperazin-1-yl)nicotinamide] was run?
A: The Kd was 12.6 to 100 nM.

Q: What about the IC50 (PARP) of the same compound?
A: Its IC50 is 39.8 to 100 nM.

Q: What about the PF50 (Jurkat cell line) of the same compound?
A: The PF50 was 1.0-1.9.

Q: `CC1Oc2ccc(CN3Cc4ccc(NC(=O)C5CC5)cc4C3)cc2NC1=O` (stereo not drawn) [Compound 243, N-(2-((2-Methyl-3-oxo-3,4-dihydro-2H-benzo[b][1,4]oxazin-6-yl)methyl)isoindolin-5-yl)cyclopropanecarboxamide] was tested. Which Kd [1] did it give?
A: The Kd was 1260 to 10000 nM.

Q: What about the IC50 (PARP) of the same compound?
A: Its IC50 is no less than 126 nM.

Q: And the PF50 (Jurkat cell line)?
A: The PF50 was “≦0.9”.

Q: `Cc1cc(CN2CCN(c3ccc(C#N)cc3)CC2)cc2c1OC(C)C(=O)N2` (stereo not drawn) [Compound 253, 4-(4-((2,8-Dimethyl-3-oxo-3,4-dihydro-2H-benzo[b][1,4]oxazin-6-yl)methyl)piperazin-1-yl)benzonitrile] was tested. Which Kd [1] did it give?
A: The Kd was no more than 10 nM.

Q: And the IC50 (PARP)?
A: The IC50 was no more than 31.6 nM.

Q: What about the PF50 (Jurkat cell line) of the same compound?
A: The PF50 was 2.0-9.9.

Q: Which results are given for `Cc1cc(CN2CCN(c3ccc(C#N)cn3)CC2)cc2c1OC(C)C(=O)N2` (stereo not drawn) [Compound 254, 6-(4-((2,8-Dimethyl-3-oxo-3,4-dihydro-2H-benzo[b][1,4]oxazin-6-yl)methyl)piperazin-1-yl)nicotinonitrile]?
A: Kd [1]: 12.6 to 100 nM; IC50 (PARP): ≤ 31.6 nM; PF50 (Jurkat cell line): 2.0-9.9

Q: With `CCOC(=O)c1ccc(N2CCN(Cc3cc(C)c4c(c3)NC(=O)C(C)O4)CC2)cc1` (stereo not drawn) [Compound 255, Ethyl 4-(4-((2,8-dimethyl-3-oxo-3,4-dihydro-2H-benzo[b][1,4]oxazin-6-yl)methyl)piperazin-1-yl)benzoate] as the compound, how does the Kd [1] read?
A: The Kd was 12.6 to 100 nM.

Q: And the IC50 (PARP)?
A: The IC50 was 39.8 to 100 nM.

Q: And the PF50 (Jurkat cell line)?
A: The PF50 was “≦0.9”.

Q: With `CNC(=O)c1ccc(N2CCN(Cc3cc(C)c4c(c3)NC(=O)C(C)O4)CC2)cc1` (stereo not drawn) [Compound 257, 4-(4-((2,8-Dimethyl-3-oxo-3,4-dihydro-2H-benzo[b][1,4]oxazin-6-yl)methyl)piperazin-1-yl)-N-methylbenzamide] as the compound, how does the Kd [1] read?
A: Its Kd is no more than 10 nM.

Q: What about the IC50 (PARP) of the same compound?
A: Its IC50 is no more than 31.6 nM.

Q: And the PF50 (Jurkat cell line)?
A: Its PF50 is 2.0-9.9.

Q: With `Cc1cc(CN2CCN(c3ccc(C(=O)NC4CC4)cc3)CC2)cc2c1OC(C)C(=O)N2` (stereo not drawn) [Compound 259, N-Cyclopropyl-4-(4-((2,8-dimethyl-3-oxo-3,4-dihydro-2H-benzo[b][1,4]oxazin-6-yl)methyl)piperazin-1-yl)benzamide] as the compound, how does the Kd [1] read?
A: The Kd was no more than 10 nM.

Q: What about the IC50 (PARP) of the same compound?
A: Its IC50 is no more than 31.6 nM.

Q: What about the PF50 (Jurkat cell line) of the same compound?
A: The PF50 was “≧10.0”.

Q: How did the Kd [1] turn out when `CCNC(=O)c1ccc(N2CCN(Cc3cc(C)c4c(c3)NC(=O)C(C)O4)CC2)nc1` (stereo not drawn) [Compound 261, 6-(4-((2,8-Dimethyl-3-oxo-3,4-dihydro-2H-benzo[b][1,4]oxazin-6-yl)methyl)piperazin-1-yl)-N-ethylnicotinamide] was run?
A: The Kd was no more than 10 nM.

Q: What about the IC50 (PARP) of the same compound?
A: The IC50 was 39.8 to 100 nM.

Q: And the PF50 (Jurkat cell line)?
A: Its PF50 is 2.0-9.9.

Q: With `CC1Oc2c(F)cc(CN3CCN(c4ccc(C#N)cn4)CC3)cc2NC1=O` (stereo not drawn) [Compound 267, 6-(4-((8-fluoro-2-methyl-3-oxo-3,4-dihydro-2H-benzo[b][1,4]oxazin-6-yl)methyl)piperazin-1-yl)nicotinonitrile] as the compound, how does the Kd [1] read?
A: The Kd was no more than 10 nM.

Q: And the IC50 (PARP)?
A: Its IC50 is no more than 31.6 nM.

Q: What about the PF50 (Jurkat cell line) of the same compound?
A: Its PF50 is 1.0-1.9.

Q: What does the source list for `CNC(=O)c1ccc(N2CCN(Cc3cc(F)c4c(c3)NC(=O)C(C)O4)CC2)cc1` (stereo not drawn) [Compound 271, 4-(4-((8-Fluoro-2-methyl-3-oxo-3,4-dihydro-2H-benzo[b][1,4]oxazin-6-yl)methyl)piperazin-1-yl)-N-methylbenzamide]?
A: Kd [1]: ≤ 10 nM; IC50 (PARP): 39.8 to 100 nM; PF50 (Jurkat cell line): ≦0.9

Q: Which results are given for `CCNC(=O)c1ccc(N2CCN(Cc3cc(F)c4c(c3)NC(=O)C(C)O4)CC2)cc1` (stereo not drawn) [Compound 272, N-Ethyl-4-(4-((8-fluoro-2-methyl-3-oxo-3,4-dihydro-2H-benzo[b][1,4]oxazin-6-yl)methyl)piperazin-1-yl)benzamide]?
A: Kd [1]: < 31.6 nM; IC50 (PARP): 39.8 to 100 nM; PF50 (Jurkat cell line): 1.0-1.9

Q: What does the source list for `CC1Oc2c(F)cc(CN3CCN(c4ccc(C(=O)NC5CC5)cc4)CC3)cc2NC1=O` (stereo not drawn) [Compound 273, N-Cyclopropyl-4-(4-((8-fluoro-2-methyl-3-oxo-3,4-dihydro-2H-benzo[b][1,4]oxazin-6-yl)methyl)piperazin-1-yl)benzamide]?
A: Kd [1]: < 31.6 nM; IC50 (PARP): ≤ 31.6 nM; PF50 (Jurkat cell line): ≦0.9
